Measurements as given in PubChem BioAssay AID248 (DTP/NCI, 2004).
Inconclusive results and toxic doses are left out. Cut-off read from the data, not from the text of the source: active = T/C of 150% or more; inactive = T/C below 125%.

Test system: L1210 leukemia ip in BDF1 mice, survival T/C
Experiment: NCI In Vivo Anticancer Drug Screen. Data for tumor model L1210 Leukemia (intraperitoneal) in B6D2F1 (BDF1) mice
Details: endpoint: mean survival time, higher = longer survival
Procedure, shortened: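 In this screen, tumor-bearing mice given compound are compared to those given vehicle, and their survival values are reported as a treated-to-control quotient.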

[1] = dose: 100.0 mg/kg/injection, schedule: Q01DX009 (ip), vehicle: saline with Tween-80
[2] = dose: 200.0 mg/kg/injection, schedule: Q01DX009 (ip), vehicle: saline with Tween-80
[3] = dose: 400.0 mg/kg/injection, schedule: Q01DX009 (ip), vehicle: saline with Tween-80
[4] = dose: 50.0 mg/kg/injection, schedule: Q01DX009 (ip), vehicle: saline
[5] = dose: 100.0 mg/kg/injection, schedule: Q04DX003 (ip), vehicle: saline
[6] = dose: 100.0 mg/kg/injection, schedule: Q01DX001 (ip), vehicle: saline
[7] = dose: 200.0 mg/kg/injection, schedule: Q01DX001 (ip), vehicle: saline
[8] = dose: 400.0 mg/kg/injection, schedule: Q01DX001 (ip), vehicle: saline
[9] = dose: 100.0 mg/kg/injection, schedule: Q04DX003 (ip), vehicle: Klucel (hydroxypropylcellulose) (HPC)
[10] = dose: 50.0 mg/kg/injection, schedule: Q01DX001 (ip), vehicle: saline
[11] = dose: 100.0 mg/kg/injection, schedule: Q04DX003 (ip), vehicle: saline with Tween-80
[12] = dose: 200.0 mg/kg/injection, schedule: Q04DX003 (ip), vehicle: saline with Tween-80
[13] = dose: 400.0 mg/kg/injection, schedule: Q04DX003 (ip), vehicle: saline with Tween-80
[14] = dose: 400.0 mg/kg/injection, schedule: Q04DX002 (ip), vehicle: saline with Tween-80

Measured: T/C

O=C(O)/C=C/c1c2ccc(=O)c(O)c-2oc2c(O)c(O)ccc12
inactive: dose: 10.0 mg/kg/injection, schedule: Q04DX003 (ip), vehicle: other 94 % of control | dose: 20.0 mg/kg/injection, schedule: Q04DX003 (ip), vehicle: other 98 % of control | dose: 40.0 mg/kg/injection, schedule: Q04DX003 (ip), vehicle: other 88 % of control | dose: 50.0 mg/kg/injection, schedule: Q04DX003 (ip), vehicle: other 106 % of control | dose: 80.0 mg/kg/injection, schedule: Q04DX003 (ip), vehicle: other 89 % of control | dose: 100.0 mg/kg/injection, schedule: Q04DX003 (ip), vehicle: other 107 % of control

CC1(C)C2CCC1(C)C(N1C(c3ccccc3)C1c1ccccc1)C2 (configuration not stated)
inactive: dose: 100.0 mg/kg/injection, schedule: Q01DX009 (ip), vehicle: Klucel (hydroxypropylcellulose) (HPC) 90 % of control | dose: 200.0 mg/kg/injection, schedule: Q01DX009 (ip), vehicle: Klucel (hydroxypropylcellulose) (HPC) 88 % of control | dose: 400.0 mg/kg/injection, schedule: Q01DX009 (ip), vehicle: Klucel (hydroxypropylcellulose) (HPC) 90 % of control

CC(CO)(CO)NC(=O)Nc1ccccc1F
inactive: [1] 113 % of control | [2] 103 % of control | [3] 101 % of control

CO[C](=O)[Hg][c]1ccc(N=Cc2ccc(N(C)C)cc2Cl)cc1
inactive: dose: 1.56 mg/kg/injection, schedule: Q01DX001 (ip), vehicle: saline with Tween-80 99 % of control | dose: 3.13 mg/kg/injection, schedule: Q01DX001 (ip), vehicle: saline with Tween-80 103 % of control | dose: 6.25 mg/kg/injection, schedule: Q01DX001 (ip), vehicle: saline with Tween-80 89 % of control

COC(=O)C(c1ccccc1)C1CCCCN1 (configuration not stated)
inactive: dose: 6.25 mg/kg/injection, schedule: Q01DX009 (ip), vehicle: saline 105 % of control | dose: 12.5 mg/kg/injection, schedule: Q01DX009 (ip), vehicle: saline 98 % of control | dose: 25.0 mg/kg/injection, schedule: Q01DX009 (ip), vehicle: saline 96 % of control | dose: 25.0 mg/kg/injection, schedule: Q04DX003 (ip), vehicle: saline 97 % of control | [4] 100 % of control | dose: 50.0 mg/kg/injection, schedule: Q04DX003 (ip), vehicle: saline 97 % of control | [5] 108 % of control

O=S1(=O)CC2(N3CCCCC3)CCCCC21 (configuration not stated)
inactive: dose: 5.0 mg/kg/injection, schedule: Q01DX009 (ip), vehicle: saline 94 % of control | dose: 10.0 mg/kg/injection, schedule: Q01DX009 (ip), vehicle: saline 96 % of control

Cn1c2c(c(=O)n(C)c1=O)C(=Nc1ccccc1)C(=O)N2
inactive: [6] 101 % of control | [7] 104 % of control | [8] 96 % of control

CCc1cccc(CC)c1NC(=O)NS(=O)(=O)c1ccccc1
inactive: [1] 91 % of control | [2] 88 % of control

C1=CC23C4CCC2C2C4C4C(=C1)C3C2N1CCCCC41 (configuration not stated)
inactive: dose: 12.5 mg/kg/injection, schedule: Q04DX003 (ip), vehicle: Klucel (hydroxypropylcellulose) (HPC) 98 % of control | dose: 25.0 mg/kg/injection, schedule: Q01DX009 (ip), vehicle: Klucel (hydroxypropylcellulose) (HPC) 105 % of control | dose: 25.0 mg/kg/injection, schedule: Q04DX003 (ip), vehicle: Klucel (hydroxypropylcellulose) (HPC) 104 % of control | dose: 50.0 mg/kg/injection, schedule: Q01DX009 (ip), vehicle: Klucel (hydroxypropylcellulose) (HPC) 103 % of control | dose: 50.0 mg/kg/injection, schedule: Q04DX003 (ip), vehicle: Klucel (hydroxypropylcellulose) (HPC) 96 % of control | [9] 107 % of control

O=c1[nH]c2c(cnn2-c2ccccc2)c(=O)n1OS(=O)(=O)c1ccccc1
inactive: [10] 103 % of control | [6] 103 % of control | [7] 100 % of control | [8] 97 % of control

OCc1cc2ccccc2[nH]1
inactive: [1] 100 % of control | [11] 100 % of control | [2] 100 % of control | [12] 96 % of control | [3] 101 % of control | [13] 100 % of control

Cc1ccc(S(=O)(=O)OCCN(CCOS(=O)(=O)c2ccc(C)cc2)c2cc(OCc3ccccc3)cc(OCc3ccccc3)c2)cc1
inactive: dose: 25.0 mg/kg/injection, schedule: Q01DX009 (ip), vehicle: water 100 % of control | dose: 50.0 mg/kg/injection, schedule: Q01DX009 (ip), vehicle: water 121 % of control | dose: 100.0 mg/kg/injection, schedule: Q01DX009 (ip), vehicle: water 89 % of control | dose: 400.0 mg/kg/injection, schedule: Q01DX009 (ip), vehicle: water 95 % of control

O=[N+]([O-])c1ccc(NN(c2ccccc2)c2ccccc2)c([N+](=O)[O-])c1
inactive: [9] 98 % of control | dose: 200.0 mg/kg/injection, schedule: Q04DX003 (ip), vehicle: Klucel (hydroxypropylcellulose) (HPC) 97 % of control | dose: 400.0 mg/kg/injection, schedule: Q04DX003 (ip), vehicle: Klucel (hydroxypropylcellulose) (HPC) 90 % of control

CCOC(=O)C1=C(C)NC(C)=C(C(=O)OCC)C1c1ccnc2ccccc12
inactive: dose: 100.0 mg/kg/injection, schedule: Q01DX001 (ip), vehicle: steriod suspending solution 93 % of control | dose: 200.0 mg/kg/injection, schedule: Q01DX001 (ip), vehicle: steriod suspending solution 94 % of control | dose: 400.0 mg/kg/injection, schedule: Q01DX001 (ip), vehicle: steriod suspending solution 89 % of control

CCOC(=O)C(C(C)=O)C(c1ccc2c(c1)OCO2)C(C(C)=O)C(=O)O (configuration not stated)
inactive: dose: 25.6 mg/kg/injection, schedule: Q04DX002 (ip), vehicle: saline with Tween-80 100 % of control | dose: 64.0 mg/kg/injection, schedule: Q04DX002 (ip), vehicle: saline with Tween-80 96 % of control | dose: 160.0 mg/kg/injection, schedule: Q04DX002 (ip), vehicle: saline with Tween-80 103 % of control | [14] 107 % of control

CCOC(=O)CCCN(C(=O)OCc1ccccc1)N(C)C(=O)OCc1ccccc1
inactive: dose: 25.0 mg/kg/injection, schedule: Q04DX003 (ip), vehicle: saline with Tween-80 104 % of control | dose: 50.0 mg/kg/injection, schedule: Q04DX003 (ip), vehicle: saline with Tween-80 111 % of control | [11] 106 % of control | [12] 104 % of control | [13] 101 % of control

O=S(=O)(Cl)c1cccc2cc3ccccc3cc12
inactive: [6] 92 % of control | [1] 107 % of control | [7] 100 % of control | [2] 102 % of control | [8] 98 % of control | [3] 103 % of control

COc1cc([N+](=O)[O-])c(C)cc1NC(=O)c1ccc(OC)c(OC)c1
inactive: [4] 97 % of control | dose: 100.0 mg/kg/injection, schedule: Q01DX009 (ip), vehicle: saline 96 % of control | [5] 89 % of control | dose: 200.0 mg/kg/injection, schedule: Q01DX009 (ip), vehicle: saline 96 % of control | dose: 200.0 mg/kg/injection, schedule: Q04DX003 (ip), vehicle: saline 93 % of control | dose: 400.0 mg/kg/injection, schedule: Q01DX009 (ip), vehicle: saline 97 % of control | dose: 400.0 mg/kg/injection, schedule: Q04DX003 (ip), vehicle: saline 91 % of control

CC(C)(NC(=O)OCc1ccccc1)C(=O)O
inactive: [11] 98 % of control | [12] 95 % of control | [13] 101 % of control

CCCCCCCCCCNC(=S)NNC(=O)CCCC(=O)NNC(=S)NCCCCCCCCCC
inactive: [10] 96 % of control | [6] 96 % of control | [7] 90 % of control | [8] 96 % of control

CSc1nc(N)nc2c1nc(SC)n2C1OC(CO)C(O)C1O (configuration not stated)
inactive: dose: 100.0 mg/kg/injection, schedule: Q01DX005 (ip), vehicle: saline 102 % of control | dose: 200.0 mg/kg/injection, schedule: Q01DX005 (ip), vehicle: saline 94 % of control

O=C(O)c1cc(Cl)cc2c1-c1ccc(Cl)cc1C2Br (configuration not stated)
inactive: dose: 18.7 mg/kg/injection, schedule: Q01DX009 (ip), vehicle: carboxymethylcellulose (CMC) 96 % of control | dose: 75.0 mg/kg/injection, schedule: Q01DX001 (ip), vehicle: carboxymethylcellulose (CMC) 98 % of control | dose: 150.0 mg/kg/injection, schedule: Q01DX001 (ip), vehicle: carboxymethylcellulose (CMC) 91 % of control

c1ccc(C(Nc2ccccn2)(c2ccccc2)c2ccccc2)cc1
inactive: dose: 100.0 mg/kg/injection, schedule: Q04DX002 (ip), vehicle: saline with Tween-80 104 % of control | dose: 200.0 mg/kg/injection, schedule: Q04DX002 (ip), vehicle: saline with Tween-80 101 % of control | [14] 93 % of control
